In assay [1] the target is T1, Histone deacetylase (Homo sapiens) (UniProt Q13547+O15379+Q9UBN7+Q92769+Q9UQL6+Q8WUI4+Q9BY41+Q96DB2+P56524+Q9UKV0+Q969S8). To be noted: HeLa, at 1 µM.
Description: Inhibition of HDAC in human HeLa cells at 1 uM after 15 mins
The target in assay [2] is T1, Histone deacetylase (Homo sapiens). To be noted: HeLa, at 0.1 µM.
Description: Inhibition of HDAC in human HeLa cells at 0.1 uM after 15 mins
For assay [3] the target is unchanged. To be noted: HeLa, at 10 µM.
Description: Inhibition of HDAC in human HeLa cells at 10 uM after 15 mins
A further assay has as its target Histone deacetylase 1 (Homo sapiens, UniProt Q13547). Put plainly: Inhibition of HDAC1.
In the next assay the target is Histone deacetylase 2 (Homo sapiens, UniProt Q92769).
Another assay concerns the target Histone deacetylase 3 (Homo sapiens, UniProt O15379). Put plainly: Inhibition of HDAC3.
Assay [4] addresses T2, Protein deacetylase HDAC6 (Homo sapiens, UniProt Q9UBN7).
T2 sequence (Q9UBN7 whole entry): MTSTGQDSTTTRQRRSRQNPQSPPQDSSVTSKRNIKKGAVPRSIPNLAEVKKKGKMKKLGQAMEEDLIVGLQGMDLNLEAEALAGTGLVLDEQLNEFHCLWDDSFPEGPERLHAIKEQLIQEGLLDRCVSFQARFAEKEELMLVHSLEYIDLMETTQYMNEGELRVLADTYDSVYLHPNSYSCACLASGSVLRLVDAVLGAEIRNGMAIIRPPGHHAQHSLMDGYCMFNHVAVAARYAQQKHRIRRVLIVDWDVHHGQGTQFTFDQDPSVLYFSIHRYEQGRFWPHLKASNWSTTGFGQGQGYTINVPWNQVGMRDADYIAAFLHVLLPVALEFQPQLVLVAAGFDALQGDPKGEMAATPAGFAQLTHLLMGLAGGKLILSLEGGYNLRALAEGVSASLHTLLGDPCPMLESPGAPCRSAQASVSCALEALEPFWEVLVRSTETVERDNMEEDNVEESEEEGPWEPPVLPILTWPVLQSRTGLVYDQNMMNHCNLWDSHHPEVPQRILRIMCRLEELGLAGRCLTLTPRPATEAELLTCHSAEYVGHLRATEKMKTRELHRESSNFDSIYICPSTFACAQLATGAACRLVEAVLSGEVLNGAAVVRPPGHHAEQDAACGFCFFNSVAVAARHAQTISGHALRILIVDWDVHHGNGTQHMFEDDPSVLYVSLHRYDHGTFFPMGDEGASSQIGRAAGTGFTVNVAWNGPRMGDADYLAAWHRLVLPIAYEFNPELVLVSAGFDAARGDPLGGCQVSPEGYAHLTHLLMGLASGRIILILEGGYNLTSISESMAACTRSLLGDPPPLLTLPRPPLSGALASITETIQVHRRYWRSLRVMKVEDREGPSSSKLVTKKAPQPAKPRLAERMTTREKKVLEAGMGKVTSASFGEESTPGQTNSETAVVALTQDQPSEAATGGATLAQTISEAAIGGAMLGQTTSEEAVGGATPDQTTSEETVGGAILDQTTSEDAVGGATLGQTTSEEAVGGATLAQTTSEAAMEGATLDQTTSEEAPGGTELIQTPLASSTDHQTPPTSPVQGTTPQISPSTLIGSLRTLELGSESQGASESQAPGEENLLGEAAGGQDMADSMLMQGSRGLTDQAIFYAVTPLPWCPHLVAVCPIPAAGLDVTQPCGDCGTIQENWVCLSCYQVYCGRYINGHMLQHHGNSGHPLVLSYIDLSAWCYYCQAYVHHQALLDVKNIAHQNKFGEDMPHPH
Kind of assay: Inhibition of HDAC6.

The target of assay [5] is T3, Polyamine deacetylase HDAC10 (Homo sapiens, UniProt Q969S8).
T3 sequence (Q969S8 whole entry): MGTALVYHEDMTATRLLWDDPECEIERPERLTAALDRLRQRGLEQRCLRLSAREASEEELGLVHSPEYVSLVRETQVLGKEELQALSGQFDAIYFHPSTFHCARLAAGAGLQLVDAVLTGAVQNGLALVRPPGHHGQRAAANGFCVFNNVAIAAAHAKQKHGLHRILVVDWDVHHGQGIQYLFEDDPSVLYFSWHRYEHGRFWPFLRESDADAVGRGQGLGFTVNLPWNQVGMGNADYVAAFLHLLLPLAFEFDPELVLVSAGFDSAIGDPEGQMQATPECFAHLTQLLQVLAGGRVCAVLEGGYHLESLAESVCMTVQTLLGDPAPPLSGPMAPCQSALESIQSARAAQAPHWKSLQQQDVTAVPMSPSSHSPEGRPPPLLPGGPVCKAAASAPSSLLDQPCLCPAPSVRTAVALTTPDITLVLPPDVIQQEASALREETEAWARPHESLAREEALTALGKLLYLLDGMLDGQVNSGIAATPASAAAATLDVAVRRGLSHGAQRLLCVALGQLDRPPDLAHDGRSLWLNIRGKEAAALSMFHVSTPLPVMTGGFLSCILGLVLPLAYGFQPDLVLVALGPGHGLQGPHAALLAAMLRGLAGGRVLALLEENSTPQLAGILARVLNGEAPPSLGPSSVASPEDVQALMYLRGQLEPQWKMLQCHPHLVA
Put plainly: Inhibition of HDAC10.

The results in this text go back to ChEMBL document CHEMBL1240475, “Design and synthesis of novel isoxazole-based HDAC inhibitors” (Eur J Med Chem, 2010).

Histone deacetylase 2, sequence (Q92769 whole entry): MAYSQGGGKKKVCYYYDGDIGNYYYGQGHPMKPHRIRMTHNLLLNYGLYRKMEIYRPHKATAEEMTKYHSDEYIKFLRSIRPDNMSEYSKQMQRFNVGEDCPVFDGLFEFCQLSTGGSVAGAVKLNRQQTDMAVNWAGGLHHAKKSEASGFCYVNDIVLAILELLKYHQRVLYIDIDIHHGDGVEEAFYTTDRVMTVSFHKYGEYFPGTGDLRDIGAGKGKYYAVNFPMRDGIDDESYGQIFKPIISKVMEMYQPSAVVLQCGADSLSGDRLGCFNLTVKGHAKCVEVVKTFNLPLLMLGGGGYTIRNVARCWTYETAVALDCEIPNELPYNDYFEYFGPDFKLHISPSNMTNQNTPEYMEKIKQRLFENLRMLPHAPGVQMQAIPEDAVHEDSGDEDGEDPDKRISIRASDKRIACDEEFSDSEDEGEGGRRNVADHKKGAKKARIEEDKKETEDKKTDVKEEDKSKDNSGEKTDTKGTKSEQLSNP
Histone deacetylase 1, sequence (Q13547 whole entry): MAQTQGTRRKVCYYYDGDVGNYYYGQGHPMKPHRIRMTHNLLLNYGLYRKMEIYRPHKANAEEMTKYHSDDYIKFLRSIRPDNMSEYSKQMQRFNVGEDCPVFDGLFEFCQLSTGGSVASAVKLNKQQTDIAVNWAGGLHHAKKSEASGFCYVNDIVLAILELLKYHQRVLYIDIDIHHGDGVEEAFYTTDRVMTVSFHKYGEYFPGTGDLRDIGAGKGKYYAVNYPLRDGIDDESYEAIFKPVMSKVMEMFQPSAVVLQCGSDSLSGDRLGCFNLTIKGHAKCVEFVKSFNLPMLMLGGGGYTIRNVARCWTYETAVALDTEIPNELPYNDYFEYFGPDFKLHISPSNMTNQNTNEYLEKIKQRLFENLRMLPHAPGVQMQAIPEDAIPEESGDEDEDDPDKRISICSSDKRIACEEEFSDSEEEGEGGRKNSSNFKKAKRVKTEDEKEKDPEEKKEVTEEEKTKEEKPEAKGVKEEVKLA
Histone deacetylase 3, sequence (O15379 whole entry): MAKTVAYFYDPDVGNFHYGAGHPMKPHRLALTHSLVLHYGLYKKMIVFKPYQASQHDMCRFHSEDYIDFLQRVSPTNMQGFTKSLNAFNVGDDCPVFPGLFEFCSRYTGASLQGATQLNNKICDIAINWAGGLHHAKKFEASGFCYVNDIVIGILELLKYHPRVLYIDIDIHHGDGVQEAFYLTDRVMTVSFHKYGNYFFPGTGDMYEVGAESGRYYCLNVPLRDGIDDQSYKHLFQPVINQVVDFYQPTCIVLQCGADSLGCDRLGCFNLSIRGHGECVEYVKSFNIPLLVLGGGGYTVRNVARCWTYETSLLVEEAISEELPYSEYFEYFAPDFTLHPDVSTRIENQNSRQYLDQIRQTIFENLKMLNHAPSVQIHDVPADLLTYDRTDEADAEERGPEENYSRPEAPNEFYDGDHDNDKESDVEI

One may read the inhibition as the drop in the measured response relative to a control, in per cent. Lower therefore signals little suppression. As for `O=C(CCCCc1cc(Cc2nn[nH]n2)no1)Nc1ccccc1`, the inhibition amounted to 0% in assay [1], 0% in assay [2] and 5% in assay [3].
In the case of `Nc1cc(CCCCC(=O)Nc2ccccc2)on1`, the inhibition in assay [1] was determined as 0%; in assay [2] it was 4.5%; in assay [3], 0%.
With `NNC(=O)c1cc(CCCCC(=O)Nc2ccccc2)on1`, the inhibition in assay [1] was determined as 0%; in assay [2] it was 0%; in assay [3], 8%.
As for `O=C(CCCCc1cc(C(=O)O)no1)Nc1ccccc1`, the inhibition in assay [1] worked out at 0%; in assay [2] it was 0%; in assay [3], 0.5%.
As to `O=C(CCCCc1cc(CS)no1)Nc1ccccc1`, the figures for the inhibition in assay [1], in assay [2] and in assay [3] were 22%, 4.5% and 80%, respectively.
As to `O=C(CCCCc1cc(CO)no1)Nc1ccccc1`, the inhibition in assay [1], in assay [2] and in assay [3] was 0% in each case.
By IC50 is commonly meant the concentration needed to halve the response being measured. Lower therefore signals higher potency. Regarding `O=C(CCCCC1CC(C(=O)NO)=NO1)Nc1ccccc1` (centres undefined), the IC50 against Histone deacetylase 1 is 17.7 µM; against Histone deacetylase 2 it was 36.2 µM; on Histone deacetylase 3, 28.1 µM; in assay [4], 0.76 µM; in assay [5], 23.9 µM. The inhibition in assay [1] came out at 16.8%; in assay [2], 4%; in assay [3], 77%.
As for `O=C(CCCC1CC(C(=O)NO)=NO1)Nc1ccccc1` (centres undefined), the inhibition stood at 9.75% in assay [1], 3.5% in assay [2] and 56% in assay [3].
For `O=C(CCCc1cc(C(=O)NO)no1)Nc1ccccc1` the same measures were 23.8%, 4.5% and 78.5%.
The corresponding values for `O=C(CCCCc1cc(/C=N/O)no1)Nc1ccccc1` are 0.75%, 0% and 7.5%.
In the case of `O=C(CCCCc1cc(-c2ccccc2O)no1)Nc1ccccc1`, the inhibition in assay [1], in assay [2] and in assay [3] was 0% each time.
With `O=C(CCCCc1cc(C(=O)NO)no1)Nc1ccccc1`, the half-inhibitory concentration (IC50) on Histone deacetylase 1 came to 4.95 µM; against Histone deacetylase 2 it was 18.9 µM; against Histone deacetylase 3, 26.7 µM; in assay [4] it was 0.43 µM; in assay [5], 9.05 µM. For the same compound, the results for the inhibition in assay [1], in assay [2] and in assay [3] were 26%, 1.5% and 78.5%, respectively.
Turning to `Nc1ccccc1-c1cc(CCCCC(=O)Nc2ccccc2)on1`, the values for the inhibition in assay [1], in assay [2] and in assay [3] were 0%, 0% and 0.5%, respectively.
